Each compound was assayed against T1, full length human recombinant glucocorticoid receptor (Homo sapiens, UniProt P04150) (assay: Glucocorticoid Receptor Binding Assay (fluorescence polarization competitor assay, Fluormone GS Far Red tracer)).
T1 construct: partially purified full length human recombinant glucocorticoid receptor; purchased Panvera/Invitrogen PV4302
T1 sequence (P04150 1-777): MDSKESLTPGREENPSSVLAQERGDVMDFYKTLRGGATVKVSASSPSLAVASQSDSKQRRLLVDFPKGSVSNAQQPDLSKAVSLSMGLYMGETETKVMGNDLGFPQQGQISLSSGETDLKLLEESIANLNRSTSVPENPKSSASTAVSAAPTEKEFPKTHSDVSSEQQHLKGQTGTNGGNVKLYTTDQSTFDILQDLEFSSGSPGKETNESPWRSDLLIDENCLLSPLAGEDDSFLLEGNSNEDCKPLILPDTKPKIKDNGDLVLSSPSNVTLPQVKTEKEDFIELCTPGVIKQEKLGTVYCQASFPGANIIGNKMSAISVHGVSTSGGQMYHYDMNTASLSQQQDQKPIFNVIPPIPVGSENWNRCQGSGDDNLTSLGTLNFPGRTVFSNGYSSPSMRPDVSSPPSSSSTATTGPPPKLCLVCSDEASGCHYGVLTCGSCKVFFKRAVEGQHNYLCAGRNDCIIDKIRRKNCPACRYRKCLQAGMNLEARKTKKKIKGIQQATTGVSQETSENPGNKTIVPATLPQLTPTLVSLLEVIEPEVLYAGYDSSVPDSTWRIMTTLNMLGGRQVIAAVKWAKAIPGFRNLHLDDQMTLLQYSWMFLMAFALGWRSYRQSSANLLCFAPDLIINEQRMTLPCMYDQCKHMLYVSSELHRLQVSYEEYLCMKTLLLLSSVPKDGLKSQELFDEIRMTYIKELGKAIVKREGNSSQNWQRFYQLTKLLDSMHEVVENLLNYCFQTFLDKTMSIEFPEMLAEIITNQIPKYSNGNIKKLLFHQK
Method in brief: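 Serially diluted compounds competed with the tight-binding far-red fluorescent ligand for recombinant full-length human glucocorticoid receptor plus GR-stabilizing peptide (screening buffer pH 7.4; 3 h, 22 °C, dark). Polarization (610-660 nm) gave IC50 via sigmoidal dose-response fits, and Ki was derived by Cheng-Prusoff from tracer concentration and Kd.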

SMILES | Ki [nM]
COC(=O)c1cnc(OCc2ccc([C@@H](C)[C@@](O)(c3ccnc(Cl)c3)C(F)(F)F)c(Cl)c2)cn1 (stereo in doubt) [Example 120, 5-{3-Chloro-4-[2-(2-chloro-pyridin-4-yl)-3,3,3-trifluoro-2-hydroxy-1-methyl-propyl]-benzyloxy}-pyrazine-2-carboxylic acid methyl ester] | 9.7
C[C@H](c1ccc(COc2cnc(C(=O)O)cn2)cc1Cl)[C@@](O)(c1ccnc(Cl)c1)C(F)(F)F (stereo in doubt) [Example 121, 5-{3-Chloro-4-[2-(2-chloro-pyridin-4-yl)-3,3,3-trifluoro-2-hydroxy-1-methyl-propyl]-benzyloxy}-pyrazine-2-carboxylic acid] | 18.8
COC(=O)c1ccc(OCc2ccc([C@@H](C)[C@@](O)(c3ccnc(Cl)c3)C(F)(F)F)c(Cl)c2)nn1 (stereo in doubt) [Example 122, 6-{3-Chloro-4-[2-(2-chloro-pyridin-4-yl)-3,3,3-trifluoro-2-hydroxy-1-methyl-propyl]-benzyloxy}-pyridazine-3-carboxylic acid methyl ester] | 10.7
C[C@H](c1ccc(COc2ccc(C(=O)O)nn2)cc1Cl)[C@@](O)(c1ccnc(Cl)c1)C(F)(F)F (stereo in doubt) [Example 123, 6-{3-Chloro-4-[2-(2-chloro-pyridin-4-yl)-3,3,3-trifluoro-2-hydroxy-1-methyl-propyl]-benzyloxy}-pyridazine-3-carboxylic acid] | 34.3
COC(=O)c1cnc(OCc2ccc([C@@H](C)[C@@](O)(c3ccnc(Cl)c3)C(F)(F)F)c(Cl)c2)nc1 (stereo in doubt) [Example 124, 2-{3-Chloro-4-[2-(2-chloro-pyridin-4-yl)-3,3,3-trifluoro-2-hydroxy-1-methyl-propyl]-benzyloxy}-pyrimidine-5-carboxylic acid methyl ester] | 8.8
C[C@H](c1ccc(COc2ncc(C(=O)O)cn2)cc1Cl)[C@@](O)(c1ccnc(Cl)c1)C(F)(F)F (stereo in doubt) [Example 125, 2-{3-Chloro-4-[2-(2-chloro-pyridin-4-yl)-3,3,3-trifluoro-2-hydroxy-1-methyl-propyl]-benzyloxy}-pyrimidine-5-carboxylic acid] | 24.7
COC(=O)c1ccc(OCc2ccc([C@@H](C)[C@@](O)(c3ccnc(Cl)c3)C(F)(F)F)c(Cl)c2)nc1 (stereo in doubt) [Example 126, 6-{3-Chloro-4-[2-(2-chloro-pyridin-4-yl)-3,3,3-trifluoro-2-hydroxy-1-methyl-propyl]-benzyloxy}-nicotinic acid methyl ester] | 8.5
C[C@H](c1cc(Oc2cnc(C(=O)O)cn2)ccc1Cl)[C@@](O)(c1ccnc(Cl)c1)C(F)(F)F (stereo in doubt) [Example 137, 5-{4-Chloro-3-[2-(2-chloro-pyridin-4-yl)-3,3,3-trifluoro-2-hydroxy-1-methyl-propyl]-phenoxy}-pyrazine-2-carboxylic acid] | 1580
COC(=O)C1(c2ccc(COc3ccc([C@H](C)[C@](O)(c4cnc5ccccc5c4)C(F)(F)F)c(Cl)c3)cc2)CC1 (stereo in doubt) [Example 142, 1-{4-[3-Chloro-4-(3,3,3-trifluoro-2-hydroxy-1-methyl-2-quinolin-3-yl-propyl)-phenoxymethyl]-phenyl}-cyclopropanecarboxylic acid methyl ester] | 6.6
C[C@@H](c1ccc(OCc2ccc(C3(C(=O)O)CC3)cc2)cc1Cl)[C@](O)(c1cnc2ccccc2c1)C(F)(F)F (stereo in doubt) [Example 143, 1-{4-[3-Chloro-4-(3,3,3-trifluoro-2-hydroxy-1-methyl-2-quinolin-3-yl-propyl)-phenoxymethyl]-phenyl}-cyclopropanecarboxylic acid] | 4.6
COC(=O)Cc1ccc(COc2ccc([C@H](C)[C@](O)(c3cnc4ccccc4c3)C(F)(F)F)c(Cl)c2)cc1 (stereo in doubt) [Example 144, {4-[3-Chloro-4-(3,3,3-trifluoro-2-hydroxy-1-methyl-2-quinolin-3-yl-propyl)-phenoxymethyl]-phenyl}-acetic acid methyl ester] | 3.6
C[C@@H](c1ccc(OCc2ccc(CC(=O)O)cc2)cc1Cl)[C@](O)(c1cccc2cnccc12)C(F)(F)F (stereo in doubt) [Example 149, {4-[3-Chloro-4-(3,3,3-trifluoro-2-hydroxy-2-isoquinolin-5-yl-1-methyl-propyl)-phenoxymethyl]-phenyl}-acetic acid] | 1.8
C[C@@H](c1ccc(-c2ccc(C(=O)O)c(F)c2)cc1Cl)[C@](O)(c1cccc2cnccc12)C(F)(F)F (stereo in doubt) [Example 150, 3′-Chloro-3-fluoro-4′-(3,3,3-trifluoro-2-hydroxy-2-isoquinolin-5-yl-1-methyl-propyl)-biphenyl-4-carboxylic acid] | 9.5

The remaining lines, values ahead:

Ki [nM] | SMILES
242 | C[C@H](c1ccc(-c2ccc(C(=O)O)cc2)cc1Cl)[C@@](O)(c1ccnc(-c2ccc(C(=O)O)cc2)c1)C(F)(F)F (stereo in doubt) [Example 57, 4′-{2-[2-(4-Carboxy-phenyl)-pyridin-4-yl]-3,3,3-trifluoro-2-hydroxy-1-methyl-propyl}-3′-chloro-biphenyl-4-carboxylic acid]
5.8 | COc1cc(C(=O)O)ccc1Oc1ccc([C@@H](C)[C@@](O)(c2ccnc(Cl)c2)C(F)(F)F)c(Cl)c1 (stereo in doubt) [Example 92, 4-{3-Chloro-4-[2-(2-chloro-pyridin-4-yl)-3,3,3-trifluoro-2-hydroxy-1-methyl-propyl]-phenoxy}-3-methoxy-benzoic acid]
68.3 | Cc1cc([C@](O)([C@H](C)c2ccc(OCc3cnn(CC(=O)O)c3)cc2Cl)C(F)(F)F)ccn1 (stereo in doubt) [Example 103, (4-{3-Chloro-4-[3,3,3-trifluoro-2-hydroxy-1-methyl-2-(2-methyl-pyridin-4-yl)-propyl]-phenoxymethyl}-pyrazol-1-yl)-acetic acid]
404 | C[C@H](c1cc(Oc2ccc(C(=O)O)nn2)ccc1Cl)[C@@](O)(c1ccnc(Cl)c1)C(F)(F)F (stereo in doubt) [Example 139, 6-{4-Chloro-3-[2-(2-chloro-pyridin-4-yl)-3,3,3-trifluoro-2-hydroxy-1-methyl-propyl]-phenoxy}-pyridazine-3-carboxylic acid]
1.5 | C[C@@H](c1ccc(OCc2ccc(C(=O)O)cc2)cc1Cl)[C@](O)(c1cnc2ccccc2c1)C(F)(F)F (stereo in doubt) [Example 141, 4-[3-Chloro-4-(3,3,3-trifluoro-2-hydroxy-1-methyl-2-quinolin-3-yl-propyl)-phenoxymethyl]-benzoic acid]
1.3 | C[C@@H](c1ccc(OCc2ccc(C(=O)O)cc2)cc1Cl)[C@](O)(c1cccc2cnccc12)C(F)(F)F (stereo in doubt) [Example 148, 4-[3-Chloro-4-(3,3,3-trifluoro-2-hydroxy-2-isoquinolin-5-yl-1-methyl-propyl)-phenoxymethyl]-benzoic acid]
3.3 | C[C@H](c1ccc(Oc2ccc(C(=O)O)cc2)cc1Cl)[C@@](O)(c1ccc(=O)n(C)c1)C(F)(F)F (stereo in doubt) [Example 152, 4-{3-Chloro-4-[3,3,3-trifluoro-2-hydroxy-1-methyl-2-(1-methyl-6-oxo-1,6-dihydro-pyridin-3-yl)-propyl]-phenoxy}-benzoic acid]

— patent US8138189B2, “Substituted benzene compounds as modulators of the glucocorticoid receptor” (Hoffman-La Roche Inc., priority 2009, dated 2012)
